Source: patent publication US9446039B2, “Aminoheteroaryl compounds as MTH1 inhibitors” (CEMM—FORSCHUNGSZENTRUM FÜR MOLEKULARE MEDIZIN GMBH, priority 2012, dated 2016)

Experiments:
Assay type in all cases: binding
[1] = target: T1, SW480 colon carcinoma cells lysate proteins (Homo sapiens, UniProt O43175); conditions: PreyGene PHGDH
T1 sequence (O43175 1-533): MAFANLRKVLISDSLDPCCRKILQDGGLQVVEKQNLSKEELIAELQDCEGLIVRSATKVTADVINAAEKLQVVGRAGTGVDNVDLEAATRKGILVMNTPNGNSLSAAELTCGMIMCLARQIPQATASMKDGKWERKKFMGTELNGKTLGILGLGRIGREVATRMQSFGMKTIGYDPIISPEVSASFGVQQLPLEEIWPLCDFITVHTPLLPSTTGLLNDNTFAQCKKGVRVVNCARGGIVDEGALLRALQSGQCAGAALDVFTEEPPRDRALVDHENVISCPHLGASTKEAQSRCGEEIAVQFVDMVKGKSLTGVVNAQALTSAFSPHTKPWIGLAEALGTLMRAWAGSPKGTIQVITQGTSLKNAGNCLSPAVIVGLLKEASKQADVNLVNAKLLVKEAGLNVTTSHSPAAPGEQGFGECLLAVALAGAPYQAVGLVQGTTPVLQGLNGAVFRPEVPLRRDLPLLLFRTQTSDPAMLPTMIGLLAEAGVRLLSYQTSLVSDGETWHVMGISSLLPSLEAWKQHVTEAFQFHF

[2] = target: SW480 colon carcinoma cells lysate proteins (Homo sapiens, UniProt O43399); conditions: PreyGene TPD52L2
[3] = target: T2, SW480 colon carcinoma cells lysate proteins (Homo sapiens, UniProt P31949); conditions: PreyGene S100A11
T2 sequence (P31949 1-105): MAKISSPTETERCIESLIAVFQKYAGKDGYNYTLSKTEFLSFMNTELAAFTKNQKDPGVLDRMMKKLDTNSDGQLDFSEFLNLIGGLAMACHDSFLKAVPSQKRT

[4] = target: T3, SW480 colon carcinoma cells lysate proteins (Homo sapiens, UniProt P37837); conditions: PreyGene TALDO1
T3 sequence (P37837 1-337): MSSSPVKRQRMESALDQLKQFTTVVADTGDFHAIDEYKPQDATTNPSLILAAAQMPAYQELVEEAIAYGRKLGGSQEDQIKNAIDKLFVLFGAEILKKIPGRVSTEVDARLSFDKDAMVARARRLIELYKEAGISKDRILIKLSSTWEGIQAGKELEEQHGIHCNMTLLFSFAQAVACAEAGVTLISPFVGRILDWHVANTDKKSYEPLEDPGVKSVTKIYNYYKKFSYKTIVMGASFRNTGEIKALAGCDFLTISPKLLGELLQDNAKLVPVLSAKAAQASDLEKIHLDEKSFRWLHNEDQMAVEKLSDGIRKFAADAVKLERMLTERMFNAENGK

[5] = target: T4, SW480 colon carcinoma cells lysate proteins (Homo sapiens, UniProt P54577); conditions: PreyGene YARS
T4 sequence (P54577 1-528): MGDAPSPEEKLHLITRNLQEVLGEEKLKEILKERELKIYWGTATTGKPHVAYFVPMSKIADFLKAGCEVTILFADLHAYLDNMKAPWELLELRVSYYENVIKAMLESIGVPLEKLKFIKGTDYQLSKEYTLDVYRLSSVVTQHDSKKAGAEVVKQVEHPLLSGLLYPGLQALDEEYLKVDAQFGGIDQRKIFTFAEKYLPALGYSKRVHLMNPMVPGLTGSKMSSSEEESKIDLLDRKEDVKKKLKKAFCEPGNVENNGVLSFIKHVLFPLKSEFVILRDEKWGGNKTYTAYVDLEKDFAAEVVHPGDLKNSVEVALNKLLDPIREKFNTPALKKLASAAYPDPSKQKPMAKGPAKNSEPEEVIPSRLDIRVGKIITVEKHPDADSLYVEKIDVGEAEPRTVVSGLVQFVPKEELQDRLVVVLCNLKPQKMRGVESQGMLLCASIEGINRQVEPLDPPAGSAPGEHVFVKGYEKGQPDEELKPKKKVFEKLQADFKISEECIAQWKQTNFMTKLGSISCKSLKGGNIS

[6] = target: T5, SW480 colon carcinoma cells lysate proteins (Homo sapiens, UniProt P55145); conditions: PreyGene MANF
T5 sequence (P55145 25-182): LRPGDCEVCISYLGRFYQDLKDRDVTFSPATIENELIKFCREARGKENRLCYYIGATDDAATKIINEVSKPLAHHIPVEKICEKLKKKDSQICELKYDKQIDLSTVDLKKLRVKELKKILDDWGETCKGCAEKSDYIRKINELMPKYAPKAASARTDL

[7] = target: SW480 colon carcinoma cells lysate proteins (Homo sapiens, UniProt P62826); conditions: PreyGene RAN
[8] = target: SW480 colon carcinoma cells lysate proteins (Homo sapiens, UniProt Q01105); conditions: PreyGene SET
[9] = target: SW480 colon carcinoma cells lysate proteins (Homo sapiens, UniProt Q92616); conditions: PreyGene GCN1L1; SW480 cells
Sequence of SW480 colon carcinoma cells lysate proteins (Homo sapiens, UniProt Q92616) (Q92616 whole entry): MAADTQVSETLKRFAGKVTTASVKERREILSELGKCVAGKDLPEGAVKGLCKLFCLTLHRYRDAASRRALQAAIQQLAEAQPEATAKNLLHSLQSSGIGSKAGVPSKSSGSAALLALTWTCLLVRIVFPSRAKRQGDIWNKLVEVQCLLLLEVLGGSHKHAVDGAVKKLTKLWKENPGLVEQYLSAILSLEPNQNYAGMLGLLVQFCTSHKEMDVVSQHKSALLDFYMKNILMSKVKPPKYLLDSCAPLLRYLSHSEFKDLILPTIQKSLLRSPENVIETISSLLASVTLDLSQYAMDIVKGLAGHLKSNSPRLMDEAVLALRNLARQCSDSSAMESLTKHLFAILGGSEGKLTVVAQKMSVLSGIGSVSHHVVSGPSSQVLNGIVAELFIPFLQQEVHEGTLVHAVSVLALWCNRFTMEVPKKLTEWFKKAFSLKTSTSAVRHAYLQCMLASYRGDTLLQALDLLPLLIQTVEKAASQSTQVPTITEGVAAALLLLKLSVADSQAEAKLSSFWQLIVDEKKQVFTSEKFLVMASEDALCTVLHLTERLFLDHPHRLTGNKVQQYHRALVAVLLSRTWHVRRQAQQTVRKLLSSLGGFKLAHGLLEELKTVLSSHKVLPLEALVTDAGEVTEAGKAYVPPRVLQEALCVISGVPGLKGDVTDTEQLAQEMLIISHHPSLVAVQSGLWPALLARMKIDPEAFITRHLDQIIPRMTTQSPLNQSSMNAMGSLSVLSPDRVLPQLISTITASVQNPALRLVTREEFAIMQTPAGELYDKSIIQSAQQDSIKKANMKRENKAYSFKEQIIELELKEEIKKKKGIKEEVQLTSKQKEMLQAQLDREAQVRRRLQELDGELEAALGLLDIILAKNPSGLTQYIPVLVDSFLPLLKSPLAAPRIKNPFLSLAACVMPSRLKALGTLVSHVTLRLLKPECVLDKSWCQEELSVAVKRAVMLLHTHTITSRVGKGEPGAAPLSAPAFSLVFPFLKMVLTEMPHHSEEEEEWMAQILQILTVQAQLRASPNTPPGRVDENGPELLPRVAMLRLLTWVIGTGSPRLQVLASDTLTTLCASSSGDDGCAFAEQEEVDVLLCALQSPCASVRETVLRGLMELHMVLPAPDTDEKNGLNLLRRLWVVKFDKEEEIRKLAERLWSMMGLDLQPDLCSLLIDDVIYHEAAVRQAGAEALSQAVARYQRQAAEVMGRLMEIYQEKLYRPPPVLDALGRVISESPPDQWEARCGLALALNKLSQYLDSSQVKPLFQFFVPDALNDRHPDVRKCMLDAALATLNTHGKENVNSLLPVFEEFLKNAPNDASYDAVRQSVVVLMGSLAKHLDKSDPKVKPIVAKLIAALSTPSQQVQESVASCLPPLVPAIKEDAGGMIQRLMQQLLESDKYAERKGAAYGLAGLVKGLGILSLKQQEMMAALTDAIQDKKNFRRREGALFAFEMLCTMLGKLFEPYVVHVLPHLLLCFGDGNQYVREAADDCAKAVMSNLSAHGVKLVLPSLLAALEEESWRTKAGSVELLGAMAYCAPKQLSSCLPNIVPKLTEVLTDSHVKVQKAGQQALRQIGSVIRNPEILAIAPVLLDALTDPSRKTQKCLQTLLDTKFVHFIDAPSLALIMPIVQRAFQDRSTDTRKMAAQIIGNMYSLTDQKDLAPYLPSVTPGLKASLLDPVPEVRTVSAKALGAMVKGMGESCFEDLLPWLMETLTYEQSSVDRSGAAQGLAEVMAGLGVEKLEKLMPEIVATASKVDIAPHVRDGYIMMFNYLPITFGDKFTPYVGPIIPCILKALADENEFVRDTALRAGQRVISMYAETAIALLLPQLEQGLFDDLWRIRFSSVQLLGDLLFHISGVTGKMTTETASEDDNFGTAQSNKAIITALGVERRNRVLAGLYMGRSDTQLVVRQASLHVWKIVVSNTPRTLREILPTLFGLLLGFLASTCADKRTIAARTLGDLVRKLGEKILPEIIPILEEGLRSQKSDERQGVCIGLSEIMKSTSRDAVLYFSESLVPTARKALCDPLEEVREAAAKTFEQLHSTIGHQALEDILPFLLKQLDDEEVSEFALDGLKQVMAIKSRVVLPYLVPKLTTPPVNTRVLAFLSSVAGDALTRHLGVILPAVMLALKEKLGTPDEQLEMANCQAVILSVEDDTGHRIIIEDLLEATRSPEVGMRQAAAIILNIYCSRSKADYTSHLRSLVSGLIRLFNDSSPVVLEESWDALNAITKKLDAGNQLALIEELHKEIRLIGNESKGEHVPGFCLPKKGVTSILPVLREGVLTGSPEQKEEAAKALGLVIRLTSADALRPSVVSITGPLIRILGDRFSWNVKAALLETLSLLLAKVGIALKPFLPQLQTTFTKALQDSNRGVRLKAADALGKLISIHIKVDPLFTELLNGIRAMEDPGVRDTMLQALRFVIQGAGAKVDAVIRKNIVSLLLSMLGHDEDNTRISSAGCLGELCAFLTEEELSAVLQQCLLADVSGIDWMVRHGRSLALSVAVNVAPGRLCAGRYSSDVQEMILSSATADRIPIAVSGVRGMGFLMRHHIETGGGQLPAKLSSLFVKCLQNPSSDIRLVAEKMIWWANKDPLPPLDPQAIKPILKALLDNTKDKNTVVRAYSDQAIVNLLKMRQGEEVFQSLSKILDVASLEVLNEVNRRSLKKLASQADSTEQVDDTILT

Sequence of SW480 colon carcinoma cells lysate proteins (Homo sapiens, UniProt Q01105) (Q01105 whole entry): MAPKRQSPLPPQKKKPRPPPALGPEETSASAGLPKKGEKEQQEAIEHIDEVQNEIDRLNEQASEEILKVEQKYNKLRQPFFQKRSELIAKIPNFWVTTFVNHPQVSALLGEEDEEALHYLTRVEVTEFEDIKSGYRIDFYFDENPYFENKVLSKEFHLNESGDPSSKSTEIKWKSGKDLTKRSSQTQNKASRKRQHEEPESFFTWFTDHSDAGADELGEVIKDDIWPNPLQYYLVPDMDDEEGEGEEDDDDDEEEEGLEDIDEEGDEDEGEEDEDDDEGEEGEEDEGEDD
Sequence of SW480 colon carcinoma cells lysate proteins (Homo sapiens, UniProt O43399) (O43399 whole entry): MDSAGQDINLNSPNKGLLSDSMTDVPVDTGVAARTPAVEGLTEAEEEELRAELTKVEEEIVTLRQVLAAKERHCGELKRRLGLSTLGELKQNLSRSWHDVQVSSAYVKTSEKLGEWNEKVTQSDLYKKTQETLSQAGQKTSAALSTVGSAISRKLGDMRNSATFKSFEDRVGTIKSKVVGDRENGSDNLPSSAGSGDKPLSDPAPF

Which results are given for `C[C@H](Oc1cc(-c2cnn(C3CCNCC3)c2)cnc1N)c1c(Cl)ccc(F)c1Cl` [(5)-crizotinib]?
AvgP [1]: 0.4081; SC.Exp. 1-1 [1]: 5; SC.Exp. 1-2 [1]: 7; SC.Exp. 2-1 [1]: 0; SC.Exp. 2-2 [1]: 0; Sum (SC.Exp.) [1]: 12; AvgP [2]: 0.191; SC.Exp. 1-1 [2]: 0; SC.Exp. 1-2 [2]: 2; SC.Exp. 2-1 [2]: 0; SC.Exp. 2-2 [2]: 0; Sum (SC.Exp.) [2]: 2; AvgP [3]: 0.3773; SC.Exp. 1-1 [3]: 4; SC.Exp. 1-2 [3]: 5; SC.Exp. 2-1 [3]: 0; SC.Exp. 2-2 [3]: 0; Sum (SC.Exp.) [3]: 9; AvgP [4]: 0.3739; SC.Exp. 1-1 [4]: 2; SC.Exp. 1-2 [4]: 2; SC.Exp. 2-1 [4]: 0; SC.Exp. 2-2 [4]: 0; Sum (SC.Exp.) [4]: 4; AvgP [5]: 0.2511; SC.Exp. 1-1 [5]: 2; SC.Exp. 1-2 [5]: 1; SC.Exp. 2-1 [5]: 0; SC.Exp. 2-2 [5]: 0; Sum (SC.Exp.) [5]: 3; AvgP [6]: 0.3221; SC.Exp. 1-1 [6]: 2; SC.Exp. 1-2 [6]: 1; SC.Exp. 2-1 [6]: 0; SC.Exp. 2-2 [6]: 0; Sum (SC.Exp.) [6]: 3; AvgP [7]: 0.3036; SC.Exp. 1-1 [7]: 5; SC.Exp. 1-2 [7]: 6; SC.Exp. 2-1 [7]: 0; SC.Exp. 2-2 [7]: 0; Sum (SC.Exp.) [7]: 11; AvgP [8]: 0.4696; SC.Exp. 1-1 [8]: 3; SC.Exp. 1-2 [8]: 3; SC.Exp. 2-1 [8]: 4; SC.Exp. 2-2 [8]: 3; Sum (SC.Exp.) [8]: 13; AvgP [9]: 0; SC.Exp. 1-1 [9]: 37; SC.Exp. 1-2 [9]: 34; SC.Exp. 2-1 [9]: 37; SC.Exp. 2-2 [9]: 37; SC.Exp. Sum [9]: 145
